Data on 1 compound can be found in patent US10155802B2, “Locally-active anticoagulants and anti-inflammatory agents” (priority 2011, dated 2018).

One experiment concerns pooled human plasma. The experiment is described as follows: Activated partial thromboplastin time (APTT) clotting assay. The class given is biochemical. In outline:
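Test compound diluted in HBS (20 mM HEPES, 150 mM NaCl, pH 7.4), mixed with pooled normal human plasma at 37 °C; APTT started with APTT reagent then CaCl2, PT with thromboplastin. APTT value is concentration giving 50% of maximum clotting delay (MCT50); PT IC50 is concentration prolonging clotting time by 50%.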

The subject of experiment [1] is FeCl3-induced arterial thrombosis (carotid artery). The experiment is described as follows: FeCl3-induced arterial model of thrombosis in rats (time to occlusion). Type of experiment: in vivo. The note with it: rat, single bolus 0.2 mg/kg plus maintenance infusion 0.00433 mg/kg/min. How it is done:
Male Sprague-Dawley rats (250-310 g; Charles River Laboratories, St-Constant, QC, Canada) were acclimated for at least 3 days prior to the start of the study. Animals were housed in microisolator cages and were kept on a 12-hr light/dark cycle with constant temperature and humidity. Food and water were provided ad libitum. Various anti-thrombotic agents and peptides of this invention were dissolved in saline (0.9% sodium chloride) prior to use.
The FeCl3-induced arterial model of thrombosis in rats was also generated as described by Wang and Xu (Wang 2005) with some modifications (Couture 2011). Briefly, rats were anesthetized with a 2.5% isoflurane/oxygen mixture and placed on a heat source (35-37° C.). An incision was made over the right carotid artery, and a segment of the artery was exposed via blunt dissection. A Doppler flow probe (Model MA1PRB, Transonic System Inc., Ithaca, N.Y., USA) connected to a perivascular flow module (TS420, Transonic System Inc., Ithaca, N.Y., USA) was then attached to the carotid artery to monitor blood flow. Data were collected and analyzed using the MP100 Biopac™ Systems (Biopac Systems, Santa Barbara, Calif., USA), and the AcgKnowledge™ software (Biopac Systems, Santa Barbara, Calif., USA), respectively. Baseline blood flow was recorded for a minimum of 15 minutes until readings stabilized. Aquasonic 100 gel (Parker Laboratories, Inc., Fairfield, N.J., USA) was added to help conductivity and any fluid accumulating at the site of surgery was removed during data sampling without touching the probe. […] One minute after drug administration, a piece of filter paper (Gel Blot Paper, GB003, Whatman, Piscataway, N.J., USA; 7 mm diameter) saturated with 20% FeCl3 (EMD Chemicals Inc., Gibbstown, N.J., USA) was placed on the exposed surface of the carotid artery and incubated for 3.5 minutes. During the application of FeCl3, the neck region was covered with aluminum foil. At the end of the incubation period, the filter paper was removed and the exposed carotid was covered with a saline-soaked gauze. Time to occlusion was defined as the time from the application of FeCl3 until blood flow decreased to zero. […] Preparing and processing each animal took approximately 1 hr and 7 animals were treated each day. Control animals were always included when the other treatments were being administered. For this reason, the number of animals in the control group is higher than that of the treated-groups.
Statistical analysis was conducted using GraphPad™ Prism (GraphPad Software Inc., San Diego Calif., USA). Data were analyzed using one-way ANOVA with post-hoc Bonferroni correction for multiple comparisons. The relationship between thrombus weight and thrombus volume was determined by linear regression. […]

In experiment [2] the test system is fresh blood withdrawn from rats with venous thrombosis. The experiment is described as follows: Clotting time (aPTT) of fresh blood withdrawn from treated rats. The class given is in vivo. The note with it: rat, 0.2 mg/kg bolus + 0.00433 mg/kg/min infusion; 20 minutes after administration versus before. How it is done: FIG. 23 illustrates the clotting times (aPTT) determined for fresh blood withdrawn from rats with venous thrombosis at three time points, the first before drug administration and vessel injury, the second at 20 minutes after FeCl3 application and the third 60 minutes following injection of the respective thrombin inhibitors. Clotting times (aPTT) are shown for different rats administered with each thrombin inhibitor, ZIP4 for MH2-wZIP4, ZIP5 for MH2-wZIP5 and T218 for BRI-T218. Dosage levels for every compound were 0.2 mg/kg for the single-bolus injection and 0.00433 mg/kg/min for the maintenance infusion,
Terminal blood samples were analyzed for aPTT within 15 to 30 minutes of collection using a Coag DX Analyzer with aPTT citrate cartridges (IDEXX Laboratories, Westbrook, Me., USA).

As for `CC[C@H](C)[C@H](N)C(=O)N[C@@H](CCCNC(=N)N)C(=O)N[C@@H](Cc1ccccc1)C(=O)N[C@H](C(=O)N[C@@H](CC(=O)O)C(=O)NCC(=O)N[C@@H](CCC(=O)O)C(=O)N[C@@H](Cc1c[nH]c2ccccc12)C(=O)N[C@H](C(=O)N[C@@H](Cc1c[nH]c2ccccc12)C(=O)N[C@@H](CC(=O)O)C(=O)N[C@@H](CC(=O)O)C(=O)N[C@@H](C)C(=O)N[C@H](C(=O)N[C@@H](CCCCN)C(=O)N[C@H](C(=O)N[C@@H](Cc1c[nH]c2ccccc12)C(=O)N[C@H](C(=O)N[C@@H](Cc1c[nH]c2ccccc12)C(=O)N[C@H](C(=O)N[C@@H](CCC(=O)O)C(=O)NCC(=O)N[C@@H](CC(=O)O)C(=O)N[C@@H](Cc1ccccc1)C(=O)N[C@@H](CCC(=O)O)C(=O)N[C@@H](CCC(=O)O)C(=O)N[C@H](C(=O)N1CCC[C@H]1C(=O)N[C@@H](CCC(=O)O)C(=O)N[C@@H](CCC(=O)O)C(=O)N[C@@H](Cc1ccc(O)cc1)C(=O)N[C@@H](CC(C)C)C(=O)N[C@@H](CCC(N)=O)C(=O)O)[C@@H](C)CC)[C@@H](C)O)[C@@H](C)O)[C@@H](C)O)[C@@H](C)O)[C@@H](C)O)[C@@H](C)O` [MH2-wZIP4], the EC50 in the experiment on pooled human plasma (37° C., concentration for 50% of maximum delay in clotting time, read-out: MTC50 (APTT)) worked out at 8 µM. In addition, the “dose response in APTT assays” value with pooled human plasma (in words) is on record as “saturable dose response”. Further, in experiment [1], the “anti-thrombotic efficacy in arterial model” value was “increases the efficacy”. Further, the “clotting time (aPTT), systemic anticoagulant effect” value in experiment [2] is “only a slight prolongation of the clotting time (aPTT)”.
